Values of other authors in patent EP1656939A1 (Pooger Properties Limited, priority 2004, dated 2006).

Columns and labels:
[1] = test system: Ehrlich-carcinoma- and sarcoma-180-bearing mice; conditions: photoperiod alternated between LD 14:10 and DL 10:14 every 3 days
[2] = test system: chemically induced mammary tumors

COc1ccc2[nH]cc(CCNC(C)=O)c2c1 [melatonin, N-acetyl-5-methoxytryptamine]
reduction of survival and acceleration of tumor growth [1]: reversed
promotion of chemically induced mammary tumors ([2]; in vivo): inhibits
antitumor activity ([2]; rodents): significant antitumor activity
half-life of endogenous melatonin in the serum (endogenous melatonin, serum): 30 to 50 min
cleared in a single passage through the liver (single passage through the liver): Approximately 90%
